ChEMBL document CHEMBL4311943, “3-[(1S,2S,3R)-2,3-Difluoro-1-hydroxy-7-methylsulfonylindan-4-yl]oxy-5-fluorobenzonitrile (PT2977), a Hypoxia-Inducible Factor 2α (HIF-2α) Inhibitor for the Treatment of Clear Cell Renal Cell Carcinoma” (J Med Chem, 2019)
The source made the active and inactive calls. No cut-off for these calls is given here.

How the values were obtained:
[1] = target: Neurotensin receptor type 1 (Homo sapiens) (UniProt P30989); assay: Activity at human NTR1 receptor at 10 uM
[2] = Half life in CD-1 mouse at 3 mg/kg, iv by UPLC-MS analysis; assay type: ADME, organism-based; conditions: in vivo
[3] = Clearance in Sprague-Dawley rat at 1 mg/kg, iv by UPLC-MS analysis; assay type: ADME, organism-based; conditions: in vivo
[4] = Dose normalized AUClast in monkey at 5 mg/kg, po administered via gavage by UPLC-MS analysis; assay type: ADME, organism-based, Macaca mulatta; conditions: rhesus monkey, in vivo
[5] = Half life in patient with advanced solid tumor at 80 mg, po administered once daily measured on day 15; assay type: ADME, organism-based; conditions: human, in vivo
[6] = Half life in patient with advanced solid tumor at 120 mg, po administered once daily measured on day 15; assay type: ADME, organism-based; conditions: human, in vivo
[7] = Cmax in patient with advanced solid tumor at 120 mg, po administered once daily measured on day 15; assay type: ADME, organism-based; set-up: dose 120 mg, route oral; conditions: human, in vivo
[8] = AUClast in patient with advanced solid tumor at 20 mg, po administered once daily measured on day 15; assay type: ADME, organism-based; set-up: dose 20 mg, route oral, time 0 - last; conditions: human, in vivo
[9] = Plasma concentration in patient with advanced solid tumor at 20 mg, po administered once daily measured on day 15 after 24 hrs; assay type: ADME, organism-based; conditions: human
[10] = Plasma concentration in patient with advanced solid tumor at 120 mg, po administered once daily measured on day 15 after 24 hrs; assay type: ADME, organism-based; conditions: human
Homo sapiens [11] = assay: In vivo inhibition of HIF-2alpha in po dosed patient with advanced solid tumor assessed as reduction in EPO expression administered once daily; assay type: organism-based
[12] = target: Muscarinic acetylcholine receptor M1 (Homo sapiens) (UniProt P11229); assay: Activity at human M1 receptor at 10 uM
[13] = target: Alpha-1D adrenergic receptor (Homo sapiens) (UniProt P25100); assay: Activity at human alpha1D receptor at 10 uM
[14] = target: Calcium/calmodulin-dependent protein kinase type II subunit delta (Homo sapiens) (UniProt Q13557); assay: Activity at human CAMK2D at 10 uM
[15] = target: Sodium channel protein type 5 subunit alpha (Homo sapiens, UniProt Q14524); assay: Activity at human Nav1.5 at 10 uM
[16] = target: A-type voltage-gated potassium channel KCND3 (Homo sapiens, UniProt Q9UK17); assay: Activity at human Kv4.3 at 10 uM
[17] = target: Vasoactive intestinal polypeptide receptor 1 (Homo sapiens) (UniProt P32241); assay: Activity at human VPAC1 at 10 uM
[18] = target: 5-hydroxytryptamine receptor 2C (Homo sapiens) (UniProt P28335); assay: Activity at human 5-HT2C receptor at 10 uM
[19] = target: Somatostatin receptor type 4 (Homo sapiens) (UniProt P31391); assay: Activity at human SST4 receptor at 10 uM
[20] = target: Leukotriene B4 receptor 1 (Homo sapiens) (UniProt Q15722); assay: Activity at human BLT1 receptor at 10 uM
[21] = target: Histamine H2 receptor (Homo sapiens) (UniProt P25021); assay: Activity at human H2 receptor at 10 uM
[22] = target: Endothelin-1 receptor (Homo sapiens) (UniProt P25101); assay: Activity at human ETA receptor at 10 uM
[23] = target: D(2) dopamine receptor (Homo sapiens) (UniProt P14416); assay: Activity at human D2L receptor at 10 uM
[24] = target: Gastrin/cholecystokinin type B receptor (Homo sapiens) (UniProt P32239); assay: Activity at human CCK2 receptor at 10 uM
[25] = target: Cannabinoid receptor 2 (Homo sapiens) (UniProt P34972); assay: Activity at human CB2 receptor at 10 uM
[26] = target: Cannabinoid receptor 1 (Homo sapiens) (UniProt P21554); assay: Activity at human CB1 receptor at 10 uM
[27] = target: CDK7/Cyclin H/MNAT1 (Homo sapiens) (UniProt P51946+P50613+P51948); assay: Activity at human CDK7/cyclinH/MAT1 at 10 uM; assay type: protein-complex assay
[28] = target: CDK9/cyclin T1 (Homo sapiens) (UniProt O60563+P50750); assay: Activity at human CDK9/cyclinT1 at 10 uM; assay type: protein-complex assay
Homo sapiens [29] = species: Homo sapiens; assay: Activity at human PKA at 10 uM
[30] = target: Protein kinase C epsilon type (Homo sapiens) (UniProt Q02156); assay: Activity at human PKCepsilon at 10 uM
[31] = target: Tyrosine-protein phosphatase non-receptor type 1 (Homo sapiens) (UniProt P18031); assay: Activity at human PTP1B at 10 uM
[32] = target: Calcitonin gene-related peptide type 1 receptor (Homo sapiens) (UniProt Q16602); assay: Activity at human CGRP1 at 10 uM
[33] = target: Beta-1 adrenergic receptor (Homo sapiens) (UniProt P08588); assay: Activity at human beta1 receptor at 10 uM

Chain of Vasoactive intestinal polypeptide receptor 1 (Homo sapiens) (P32241 whole entry): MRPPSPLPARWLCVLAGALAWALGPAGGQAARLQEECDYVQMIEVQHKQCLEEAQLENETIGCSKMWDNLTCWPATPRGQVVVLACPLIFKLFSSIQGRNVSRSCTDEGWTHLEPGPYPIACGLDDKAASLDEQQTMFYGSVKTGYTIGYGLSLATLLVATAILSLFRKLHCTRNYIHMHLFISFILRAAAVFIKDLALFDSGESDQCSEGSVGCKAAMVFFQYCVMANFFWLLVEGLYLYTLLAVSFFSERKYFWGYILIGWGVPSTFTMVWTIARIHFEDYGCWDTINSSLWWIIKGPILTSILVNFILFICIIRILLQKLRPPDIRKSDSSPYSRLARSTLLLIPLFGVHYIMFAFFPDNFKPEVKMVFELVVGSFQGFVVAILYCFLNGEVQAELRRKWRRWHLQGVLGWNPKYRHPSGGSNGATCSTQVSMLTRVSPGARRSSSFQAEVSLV
Chain of Calcitonin gene-related peptide type 1 receptor (Homo sapiens) (Q16602 whole entry, looked up): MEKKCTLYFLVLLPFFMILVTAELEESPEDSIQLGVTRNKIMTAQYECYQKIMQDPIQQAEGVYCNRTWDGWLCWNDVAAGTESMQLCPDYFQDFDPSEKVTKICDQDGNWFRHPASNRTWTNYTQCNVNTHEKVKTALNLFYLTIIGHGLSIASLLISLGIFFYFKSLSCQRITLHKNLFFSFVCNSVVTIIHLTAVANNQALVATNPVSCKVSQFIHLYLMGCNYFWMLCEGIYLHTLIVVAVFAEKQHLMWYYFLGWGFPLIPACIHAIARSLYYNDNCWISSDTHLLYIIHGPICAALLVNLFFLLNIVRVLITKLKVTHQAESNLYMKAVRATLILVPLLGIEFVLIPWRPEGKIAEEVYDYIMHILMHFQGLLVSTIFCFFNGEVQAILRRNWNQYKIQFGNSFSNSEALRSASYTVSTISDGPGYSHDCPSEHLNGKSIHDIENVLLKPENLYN
Chain of Sodium channel protein type 5 subunit alpha (Q14524 whole entry): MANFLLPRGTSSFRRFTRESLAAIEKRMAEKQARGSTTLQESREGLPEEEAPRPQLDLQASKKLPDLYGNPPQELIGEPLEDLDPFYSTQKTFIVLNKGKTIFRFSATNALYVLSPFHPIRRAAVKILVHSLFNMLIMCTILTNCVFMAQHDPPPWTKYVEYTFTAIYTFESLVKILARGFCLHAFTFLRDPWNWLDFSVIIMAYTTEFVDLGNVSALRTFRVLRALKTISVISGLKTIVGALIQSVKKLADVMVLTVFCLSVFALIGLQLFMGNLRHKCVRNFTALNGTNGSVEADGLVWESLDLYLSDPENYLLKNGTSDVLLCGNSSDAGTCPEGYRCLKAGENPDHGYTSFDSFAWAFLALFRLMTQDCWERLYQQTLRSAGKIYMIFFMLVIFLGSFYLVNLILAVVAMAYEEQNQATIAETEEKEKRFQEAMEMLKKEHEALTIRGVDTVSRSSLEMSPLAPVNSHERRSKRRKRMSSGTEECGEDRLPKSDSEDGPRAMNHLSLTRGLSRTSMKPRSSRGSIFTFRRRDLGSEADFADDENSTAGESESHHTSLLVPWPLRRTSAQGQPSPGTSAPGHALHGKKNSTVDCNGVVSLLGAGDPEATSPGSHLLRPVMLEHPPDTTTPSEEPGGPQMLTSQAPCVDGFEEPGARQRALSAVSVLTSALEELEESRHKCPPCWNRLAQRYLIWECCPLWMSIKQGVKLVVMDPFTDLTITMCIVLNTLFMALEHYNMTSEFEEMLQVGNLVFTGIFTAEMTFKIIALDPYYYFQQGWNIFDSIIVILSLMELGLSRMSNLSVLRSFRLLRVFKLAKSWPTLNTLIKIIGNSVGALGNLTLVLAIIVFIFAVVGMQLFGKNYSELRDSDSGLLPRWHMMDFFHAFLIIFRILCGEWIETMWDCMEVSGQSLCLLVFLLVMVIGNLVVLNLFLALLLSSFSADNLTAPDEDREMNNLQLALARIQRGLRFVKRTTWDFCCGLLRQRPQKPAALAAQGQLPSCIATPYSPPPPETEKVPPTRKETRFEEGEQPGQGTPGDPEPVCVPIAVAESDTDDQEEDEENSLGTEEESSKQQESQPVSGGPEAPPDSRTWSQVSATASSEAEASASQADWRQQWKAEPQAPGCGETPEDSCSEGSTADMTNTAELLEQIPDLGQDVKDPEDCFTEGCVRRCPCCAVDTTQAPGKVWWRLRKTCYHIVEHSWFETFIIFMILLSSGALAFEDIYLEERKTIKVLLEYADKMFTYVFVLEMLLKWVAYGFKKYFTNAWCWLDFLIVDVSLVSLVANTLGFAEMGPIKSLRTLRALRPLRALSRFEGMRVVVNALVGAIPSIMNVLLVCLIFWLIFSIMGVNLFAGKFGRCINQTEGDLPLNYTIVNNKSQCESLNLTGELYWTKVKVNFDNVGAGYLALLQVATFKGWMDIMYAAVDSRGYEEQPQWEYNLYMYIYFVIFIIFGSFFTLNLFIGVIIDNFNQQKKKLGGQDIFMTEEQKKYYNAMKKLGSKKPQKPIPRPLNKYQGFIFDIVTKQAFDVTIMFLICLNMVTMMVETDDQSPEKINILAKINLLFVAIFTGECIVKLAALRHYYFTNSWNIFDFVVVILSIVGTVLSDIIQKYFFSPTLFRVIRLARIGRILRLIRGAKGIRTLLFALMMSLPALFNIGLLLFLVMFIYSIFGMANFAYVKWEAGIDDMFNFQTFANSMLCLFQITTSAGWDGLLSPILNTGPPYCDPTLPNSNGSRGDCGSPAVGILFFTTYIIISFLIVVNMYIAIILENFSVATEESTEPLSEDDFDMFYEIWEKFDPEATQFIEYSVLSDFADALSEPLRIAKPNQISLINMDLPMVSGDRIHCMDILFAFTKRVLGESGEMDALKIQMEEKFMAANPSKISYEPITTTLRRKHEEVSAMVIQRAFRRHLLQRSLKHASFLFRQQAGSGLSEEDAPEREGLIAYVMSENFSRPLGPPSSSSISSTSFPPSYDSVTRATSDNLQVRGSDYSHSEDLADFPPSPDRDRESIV
Chain of Alpha-1D adrenergic receptor (Homo sapiens) (P25100 whole entry): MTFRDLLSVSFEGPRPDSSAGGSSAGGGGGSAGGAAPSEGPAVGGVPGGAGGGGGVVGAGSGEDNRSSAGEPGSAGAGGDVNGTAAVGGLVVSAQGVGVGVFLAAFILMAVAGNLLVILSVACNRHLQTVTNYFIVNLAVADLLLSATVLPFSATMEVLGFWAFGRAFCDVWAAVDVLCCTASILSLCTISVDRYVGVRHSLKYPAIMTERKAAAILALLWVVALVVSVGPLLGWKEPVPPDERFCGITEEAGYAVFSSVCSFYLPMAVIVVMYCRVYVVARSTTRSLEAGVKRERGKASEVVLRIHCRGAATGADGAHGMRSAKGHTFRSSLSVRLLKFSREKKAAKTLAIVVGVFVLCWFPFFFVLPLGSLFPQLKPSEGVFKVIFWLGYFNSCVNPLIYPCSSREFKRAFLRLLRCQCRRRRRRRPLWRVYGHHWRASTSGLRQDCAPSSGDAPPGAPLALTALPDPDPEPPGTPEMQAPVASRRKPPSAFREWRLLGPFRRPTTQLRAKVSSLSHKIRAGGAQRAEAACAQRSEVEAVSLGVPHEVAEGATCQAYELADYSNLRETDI
Chain of Cannabinoid receptor 1 (Homo sapiens) (P21554 whole entry): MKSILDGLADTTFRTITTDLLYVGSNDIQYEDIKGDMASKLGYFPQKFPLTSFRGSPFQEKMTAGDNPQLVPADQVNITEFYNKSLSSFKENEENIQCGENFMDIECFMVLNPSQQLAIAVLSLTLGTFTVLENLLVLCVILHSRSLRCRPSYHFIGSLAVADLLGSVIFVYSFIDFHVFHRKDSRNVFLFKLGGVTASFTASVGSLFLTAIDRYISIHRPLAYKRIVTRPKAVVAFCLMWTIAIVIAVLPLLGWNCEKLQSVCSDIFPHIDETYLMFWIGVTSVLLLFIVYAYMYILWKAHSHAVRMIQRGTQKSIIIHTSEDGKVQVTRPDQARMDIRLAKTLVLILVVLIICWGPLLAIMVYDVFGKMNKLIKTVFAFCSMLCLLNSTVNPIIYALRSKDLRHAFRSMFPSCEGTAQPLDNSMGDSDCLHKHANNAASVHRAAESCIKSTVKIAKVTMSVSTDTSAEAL
Chain of Somatostatin receptor type 4 (Homo sapiens) (P31391 whole entry): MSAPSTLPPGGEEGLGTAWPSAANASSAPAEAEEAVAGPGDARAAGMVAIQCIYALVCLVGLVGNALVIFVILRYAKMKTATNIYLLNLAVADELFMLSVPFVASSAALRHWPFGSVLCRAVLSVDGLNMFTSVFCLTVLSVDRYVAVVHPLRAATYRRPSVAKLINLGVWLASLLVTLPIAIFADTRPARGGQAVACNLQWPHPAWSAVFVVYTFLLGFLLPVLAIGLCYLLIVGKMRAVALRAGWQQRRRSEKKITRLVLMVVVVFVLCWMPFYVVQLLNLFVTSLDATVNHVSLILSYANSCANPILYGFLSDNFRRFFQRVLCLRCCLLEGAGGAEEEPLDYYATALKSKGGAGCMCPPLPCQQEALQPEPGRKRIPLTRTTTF
Chain of 5-hydroxytryptamine receptor 2C (Homo sapiens) (P28335 whole entry): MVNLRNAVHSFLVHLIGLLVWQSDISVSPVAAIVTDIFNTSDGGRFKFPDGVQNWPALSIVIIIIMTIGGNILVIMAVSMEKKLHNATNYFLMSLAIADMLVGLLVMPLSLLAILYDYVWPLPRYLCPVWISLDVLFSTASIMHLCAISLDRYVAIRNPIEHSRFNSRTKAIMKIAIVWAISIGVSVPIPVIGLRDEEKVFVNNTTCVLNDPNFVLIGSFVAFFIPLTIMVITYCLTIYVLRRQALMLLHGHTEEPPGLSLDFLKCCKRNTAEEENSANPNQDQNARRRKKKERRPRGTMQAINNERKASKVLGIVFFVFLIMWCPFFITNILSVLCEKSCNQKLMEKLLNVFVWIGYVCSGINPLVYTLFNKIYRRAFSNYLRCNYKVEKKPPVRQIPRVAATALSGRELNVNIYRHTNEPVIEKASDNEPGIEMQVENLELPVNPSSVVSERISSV

Activity [1]: inactive | half-life [2]: 4 h | clearance [3]: 19 mL/min/kg | AUClast/dose [4]: 31 µM·h | half-life [5]: 15.4 h | half-life [6]: 20.9 h | Cmax [7]: 1800 ng/mL | AUC(0-t) [8]: 2100 ng·h/mL | concentration at 24 h [9]: 60 ng/mL | concentration at 24 h [10]: 710 ng/mL | inhibition (INH) (Homo sapiens [11]): Dose-dependent effect | Activity [12]: inactive | Activity [13]: inactive | Activity [14]: inactive | Activity [16]: Not Active | Activity [17]: inactive | Activity [18]: inactive | Activity [19]: inactive | Activity [20]: inactive | Activity [21]: inactive | Activity [22]: inactive | Activity [23]: inactive | Activity [24]: inactive | Activity [25]: inactive | Activity [26]: inactive | Activity [27]: inactive | Activity [28]: inactive | Activity (Homo sapiens [29]): inactive | Activity [30]: inactive | Activity [31]: inactive | Activity [32]: inactive | Activity [33]: inactive
Compound: CS(=O)(=O)c1ccc(Oc2cc(F)cc(C#N)c2)c2c1[C@H](O)[C@H](F)[C@@H]2F [BELZUTIFAN]
Activity [15]: Not Active
